Patent publication US9493487B2, “3-(1H-imidazo[4,5-C]pyridin-2-YL)-1H-pyrazolo[3,4-B]pyridine and therapeutic uses thereof” (Samumed, LLC, priority 2014, dated 2016)

Experiments:
Type in all cases: cell-based
[1] = tested on: Wnt activity (Sp5-Luc reporter, SW480 colon carcinoma cells); assay: Sp5-Luc Wnt reporter gene assay in SW480 colon carcinoma cells; details: Homo sapiens; SW480 cells stably expressing Sp5-Luc reporter; 42 h incubation; BrightGlo luminescence normalized to DMSO
How it was run: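 IC50 values come from variable-slope four-parameter fits of luciferase signal normalized to DMSO wells. Stable Sp5-Luc reporter SW480 colon carcinoma cells were exposed to compounds in a 3-fold dilution series (source plates from 10 mM stock) for forty-two hours at 37 °C.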

[2] = tested on: primary human mesenchymal stem cells (hMSCs); assay: Chondrogenesis induction screen in primary human mesenchymal stem cells (nodule count, Rhodamine B/Nile Red); details: 144 h, 6 days, concentration required to induce chondrogenesis equivalent to TGF-β3 (10 ng/mL), read-out: Conc (nM) of 100% TGF-β3 activity
Procedure: The above synthesized compounds were screened using primary human mesenchymal stem cells (hMSCs) to determine their ability to induce chondrogenesis (process by which cartilage is developed).
Primary human mesenchymal stem cells (hMSCs) were purchased from Lonza (Walkersville, Md.) and expanded in Mesenchymal Stem Cell Growth Media (Lonza). Cells between passage 3 and 6 were used for the experiments.
Each compound was dissolved in DMSO as a 10 mM stock and used to prepare compound source plates. Serial dilution (1:3, 6-point dose-response curves from 2700 nM to 10 nM) and compound transfer was performed using the ECHO 550 (Labcyte, Sunnyvale, Calif.) into 96-well clear bottom assay plates (Greiner Bio-One) with appropriate DMSO backfill for a final DMSO concentration of 0.03%. hMSCs were plated at 20,000 cells/well in 250 μL/well Incomplete Chondrogenic Induction Medium (Lonza; DMEM, dexamethasone, ascorbate, insulin-transferrin-selenium [ITS supplement], gentamycin-amphotericin [GA-1000], sodium pyruvate, proline and L-glutamine). TGF-β3 (10 ng/mL) was used as a positive control for differentiation while negative control wells were treated with 75 nL DMSO for normalization and calculating EC50 values. Cells were incubated at 37° C. and 5% CO2 for 6 days. To image chondrogenic nodules, the cells were fixed using 4% formaldehyde (Electron Microscopy Sciences), and stained with 2 μg/mL Rhodamine B (Sigma-Aldrich) and 20 μM Nile Red (Sigma-Aldrich) [Johnson K., et. al, A Stem Cell-Based Approach to Cartilage Repair, Science, (2012), 336(6082), 717-721]. The nodules imaged (4 images per well at 4× magnification) by excitation at 531 nm and emission at 625 nm and quantified using the CellInsight CX5 (Thermo Scientific). Number of nodules in each well was normalized to the average of 3 DMSO treated wells on the same plate using Excel (Microsoft Inc.). The normalized averages (fold change over DMSO) of 3 replicate wells for each compound concentration were calculated. Due to solubility limitations of some of the compounds, curve fitting was incomplete leading to inaccurate EC50 determinations.
Using TGF-β3 as a positive control, the concentration of test compounds required to induce equivalent levels of chondrogenesis is reported. In addition, the maximum activity of each compound and the respective dose that each compound reached maximum chondrogenesis activity is reported.

[3] = tested on: primary human fibroblasts derived from IPF patients (LL29 cells); assay: Inhibition of TGF-β1-induced fibrosis (αSMA staining) in primary human fibroblasts from IPF patients; details: Fibroblast, 96 h, TGF-β1 20 ng/mL, 4 days, 11-point dose-response 10 μM to 1.87 nM
How it was run: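 LL29 cells in F12 with 1% FBS were exposed to compound (11-point, 10 μM–1.87 nM, 0.1% DMSO) plus TGF-β1 20 ng/mL for 4 days at 37° C. Imaged αSMA-positive fraction of live (SYTOX-negative) cells, normalized to TGF-β1/DMSO wells; EC50 by non-linear regression of triplicates.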

Structure (SMILES) | IC50 [1] | EC (100% TGF-beta3 activity) [2] | EC50 [3]
CCC(=O)Nc1cncc(-c2cnc3[nH]nc(-c4nc5c(-c6cccc(F)c6)nccc5[nH]4)c3c2)c1 [Compound 1, N-(5-(3-(4-(3-Fluorophenyl)-1H-imidazo[4,5-c]pyridin-2-yl)-1H-pyrazolo[3,4-b]pyridin-5-yl)pyridin-3-yl)propionamide] | 5.8 nM | 117 nM | 62 nM
O=C(Nc1cncc(-c2cnc3[nH]nc(-c4nc5c(-c6ccc(F)cc6)nccc5[nH]4)c3c2)c1)C1CCC1 [Compound 46, N-(5-(3-(4-(4-Fluorophenyl)-1H-imidazo[4,5-c]pyridin-2-yl)-1H-pyrazolo[3,4-b]pyridin-5-yl)pyridin-3-yl)cyclobutanecarboxamide] | 5 nM | 80.6 nM | 253 nM
Nc1cncc(-c2cnc3[nH]nc(-c4nc5c(-c6ccccc6F)nccc5[nH]4)c3c2)c1 [Compound 55, 5-(3-(4-(2-Fluorophenyl)-1H-imidazo[4,5-c]pyridin-2-yl)-1H-pyrazolo[3,4-b]pyridin-5-yl)pyridin-3-amine] | 5.9 nM | 32.2 nM | 283 nM
Cc1cn(-c2nccc3[nH]c(-c4n[nH]c5ncc(-c6cncc(NC(=O)CC(C)C)c6)cc45)nc23)cn1 [Compound 184, 3-Methyl-N-(5-(3-(4-(4-methyl-1H-imidazol-1-yl)-1H-imidazo[4,5-c]pyridin-2-yl)-1H-pyrazolo[3,4-b]pyridin-5-yl)pyridin-3-yl)butanamide] | 4.8 nM | 5.4 nM | –
CCCC(=O)Nc1cncc(-c2cnc3[nH]nc(-c4nc5c(-c6ccsc6)nccc5[nH]4)c3c2)c1 [Compound 251, N-(5-(3-(4-(Thiophen-3-yl)-1H-imidazo[4,5-c]pyridin-2-yl)-1H-pyrazolo[3,4-b]pyridin-5-yl)pyridin-3-yl)butyramide] | 9.9 nM | 52.8 nM | 73 nM
CC(C)Nc1cncc(-c2cnc3[nH]nc(-c4nc5c(-c6ccoc6)nccc5[nH]4)c3c2)c1 [Compound 272, 5-(3-(4-(Furan-3-yl)-1H-imidazo[4,5-c]pyridin-2-yl)-1H-pyrazolo[3,4-b]pyridin-5-yl)-N-isopropylpyridin-3-amine] | 13 nM | 72 nM | 9 nM
O=C(Nc1cncc(-c2cnc3[nH]nc(-c4nc5c(-c6cccs6)nccc5[nH]4)c3c2)c1)C1CC1 [Compound 305, N-(5-(3-(4-(Thiophen-2-yl)-1H-imidazo[4,5-c]pyridin-2-yl)-1H-pyrazolo[3,4-b]pyridin-5-yl)pyridin-3-yl)cyclopropanecarboxamide] | 9 nM | 54.9 nM | –
Cc1ccc(-c2nccc3[nH]c(-c4n[nH]c5ncc(-c6cncc(N)c6)cc45)nc23)s1 [Compound 341, 5-(3-(4-(5-Methylthiophen-2-yl)-1H-imidazo[4,5-c]pyridin-2-yl)-1H-pyrazolo[3,4-b]pyridin-5-yl)pyridin-3-amine] | 0.9 nM | 58.2 nM | 9 nM
CC(=O)c1ccc(-c2nccc3[nH]c(-c4n[nH]c5ncc(-c6cccnc6)cc45)nc23)s1 [Compound 368, 1-(5-(2-(5-(Pyridin-3-yl)-1H-pyrazolo[3,4-b]pyridin-3-yl)-1H-imidazo[4,5-c]pyridin-4-yl)thiophen-2-yl)ethan-1-one] | 10.4 nM | 84.6 nM | 241 nM
Cc1ccncc1-c1cnc2[nH]nc(-c3nc4c(-c5cc(F)cc(CNS(C)(=O)=O)c5)nccc4[nH]3)c2c1 [Compound 395, N-(3-Fluoro-5-(2-(5-(4-methylpyridin-3-yl)-1H-pyrazolo[3,4-b]pyridin-3-yl)-1H-imidazo[4,5-c]pyridin-4-yl)benzyl)methanesulfonamide] | 8 nM | 92.8 nM | 9 nM
CC(C)Nc1cncc(-c2cnc3[nH]nc(-c4nc5c(-c6cc(F)cc(NCCN(C)C)c6)nccc5[nH]4)c3c2)c1 [Compound 428, N^1-(3-Fluoro-5-(2-(5-(5-(isopropylamino)pyridin-3-yl)-1H-pyrazolo[3,4-b]pyridin-3-yl)-1H-imidazo[4,5-c]pyridin-4-yl)phenyl)-N^2,N^2-dimethylethane-1,2-diamine] | 15 nM | 82.9 nM | 20 nM
Cn1cc(-c2cnc3[nH]nc(-c4nc5c(-c6cccc(F)c6)nccc5[nH]4)c3c2)cn1 [Compound 888, 3-(4-(3-Fluorophenyl)-1H-imidazo[4,5-c]pyridin-2-yl)-5-(1-methyl-1H-pyrazol-4-yl)-1H-pyrazolo[3,4-b]pyridine] | 12 nM | 74.9 nM | 14 nM
Cc1ncc(-c2cnc3[nH]nc(-c4nc5c(-c6cccc(F)c6)nccc5[nH]4)c3c2)n1C [Compound 889, 5-(1,2-Dimethyl-1H-imidazol-5-yl)-3-(4-(3-fluorophenyl)-1H-imidazo[4,5-c]pyridin-2-yl)-1H-pyrazolo[3,4-b]pyridine] | 12 nM | 152 nM | 9 nM
Fc1cccc(-c2nccc3[nH]c(-c4n[nH]c5ncc(-c6cnccn6)cc45)nc23)c1 [Compound 902, 3-(4-(3-Fluorophenyl)-1H-imidazo[4,5-c]pyridin-2-yl)-5-(pyrazin-2-yl)-1H-pyrazolo[3,4-b]pyridine] | 705 nM | – | 9 nM
CN(C)CC(=O)Nc1cncc(-c2cnc3[nH]nc(-c4nc5c(-c6cccc(F)c6)nccc5[nH]4)c3c2)c1 [Compound 1367, 2-(Dimethylamino)-N-(5-(3-(4-(3-fluorophenyl)-1H-imidazo[4,5-c]pyridin-2-yl)-1H-pyrazolo[3,4-b]pyridin-5-yl)pyridin-3-yl)acetamide] | 183 nM | – | 186 nM
